Data: US7259239B2, “Lipopolysaccharide α-2,3 sialyltransferase of campylobacter jejuni and its uses” (priority 1998, dated 2007)

Assays:
[1] = target: C. jejuni α-2,3-sialyltransferase (CST-06, MBP-fusion protein of the full length sialyltransferase) (Campylobacter jejuni, UniProt Q9RGF1); assay: Acceptor specificity and kinetics on p-nitrophenyl-glycosides with malE-cst (CST-06); assay type: biochemical; settings: p-NP-glycoside acceptor at 2.0 mM; for Relative Activity (CST-06): acceptor with lowest activity given the value 1
C. jejuni α-2,3-sialyltransferase (CST-06, MBP-fusion protein of the full length sialyltransferase), sequence (Q9RGF1 entry or part of it): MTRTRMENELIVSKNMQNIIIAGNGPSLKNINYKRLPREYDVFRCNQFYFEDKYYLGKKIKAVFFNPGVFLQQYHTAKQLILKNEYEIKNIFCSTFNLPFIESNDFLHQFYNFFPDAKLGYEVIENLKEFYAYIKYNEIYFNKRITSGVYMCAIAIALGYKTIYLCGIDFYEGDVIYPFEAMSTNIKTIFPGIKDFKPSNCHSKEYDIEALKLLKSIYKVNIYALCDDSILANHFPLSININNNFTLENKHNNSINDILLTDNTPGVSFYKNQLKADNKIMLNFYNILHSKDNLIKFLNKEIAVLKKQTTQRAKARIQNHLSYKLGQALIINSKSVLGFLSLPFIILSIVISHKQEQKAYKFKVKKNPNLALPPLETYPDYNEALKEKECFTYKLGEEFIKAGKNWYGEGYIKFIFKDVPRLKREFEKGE
Protocol: (§1) Kinetic analysis of acceptors was performed at 37° C. with p-NP-glycosides at concentrations of 0.1 to 10 mM, with CMP-Neu5Ac at 1 mM. Kinetic analysis of the donor CMP-Neu5Ac was performed at a concentration of 20 μM to 1000 μM with p-NP-lactose at 5 mM. Care was taken to ensure that the level of acceptor conversion was between about 5-10% for acceptor kinetic assays.
(§2) For donor kinetics the amount of conversion of CMP-Neu5Ac was calculated from the amount of product formed compared to an internal standard of 10 μM p-NP-glucose added after the reaction. This peak was well resolved from the acceptor and product peaks. The reactions with p-NP-glycosides were stopped by addition of an equal volume of 2% SDS, 20 mM EDTA and heated to 75° C. for 3 minutes and then diluted 1:1 (or maximally 1:10 for 10 mM concentrations) with water. The samples were then analyzed by CE using a diode array detector scanning between 260 and 300 nm, with the peaks at detected at 290 nm. The peaks from the electropherograms were analyzed using manual peak integration with the P/ACE Station™ software. For rapid detection of enzyme activity, samples from the transferase reaction mixtures were examined by thin layer chromatography on silica-60 TLC plates (E. Merck) as described in Gilbert et al. (1996) supra.
(§3) The acceptor specificity of the C. jejuni α-2,3-sialyltransferase was examined with a panel of p-NP-glycosides having both β1→4 and β1→3 linkages. The kinetic data for all of the acceptors was collected using the MBP-fusion protein of the full length sialyltransferase. The data for the acceptor specificity were collected first by assaying the enzyme at an acceptor concentration of 2.0 mM. The acceptor with the lowest activity was given the value of 1 for the comparison of activity. These reaction conditions were used in a comparison (Table 3) of the C. jejuni enzyme with the Lst protein from N. meningitidis (Gilbert et al. (1996) J. Biol. Chem. 271: 28271-28276). The N. meningitidis Lst protein was also a MBP protein fusion which was soluble and purified by affinity chromatography.

[2] = target: T1, Lst protein from N. meningitidis (NST-33, MBP protein fusion) (Neisseria meningitidis serogroup B, UniProt P72097); assay type: biochemical; settings: p-NP-glycoside acceptor at 2.0 mM; for Relative Activity (NST-33): acceptor with lowest activity given the value 1
T1 construct: made in house
T1 sequence (P72097 whole entry, the tested form may be a part): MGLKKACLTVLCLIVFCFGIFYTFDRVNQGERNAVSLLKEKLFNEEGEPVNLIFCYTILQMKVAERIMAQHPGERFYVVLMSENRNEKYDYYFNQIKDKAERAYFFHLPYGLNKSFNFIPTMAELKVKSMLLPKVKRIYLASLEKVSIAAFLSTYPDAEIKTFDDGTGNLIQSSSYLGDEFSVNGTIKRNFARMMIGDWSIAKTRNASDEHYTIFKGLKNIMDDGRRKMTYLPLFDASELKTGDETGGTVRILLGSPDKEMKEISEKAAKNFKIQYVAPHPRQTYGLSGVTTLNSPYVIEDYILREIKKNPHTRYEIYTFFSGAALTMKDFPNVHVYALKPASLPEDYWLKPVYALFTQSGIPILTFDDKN
Protocol: as §2, §3

[3] = tested on: CC(=O)N[C@H]1[C@H](Oc2ccc([N+](=O)[O-])cc2)O[C@H](CO)[C@@H](O[C@@H]2O[C@H](CO)[C@H](O)[C@H](O)[C@H]2O)[C@@H]1O; assay: Acceptor specificity and kinetics on p-nitrophenyl-glycosides with malE-cst (CST-06); assay type: biochemical, Campylobacter jejuni; settings: other: 37° C., p-NP-glycosides 0.1 to 10 mM, CMP-Neu5Ac 1 mM
Protocol: as §1, §2, §3

[4] = tested on: [H][C@@]1(O[C@H]2[C@H](O)[C@@H](O)[C@H](Oc3ccc([N+](=O)[O-])cc3)O[C@@H]2CO)O[C@H](CO)[C@H](O)[C@H](O)[C@H]1O; assay: as above; assay type: biochemical, Campylobacter jejuni; settings: other: 37° C., p-NP-glycosides 0.1 to 10 mM, CMP-Neu5Ac 1 mM
Protocol: as §1, §2, §3

[5] = tested on: CC(=O)N[C@H]1[C@@H](Oc2ccc([N+](=O)[O-])cc2)O[C@H](CO)[C@H](O)[C@@H]1O[C@@H]1O[C@H](CO)[C@H](O)[C@H](O)[C@H]1O; assay: as above; assay type: biochemical, Campylobacter jejuni; settings: other: 37° C., p-NP-glycosides 0.1 to 10 mM, CMP-Neu5Ac 1 mM
Protocol: as §1, §2, §3

Molecule	Relative Activity (CST-06) [1]	Relative Activity (NST-33) [2]	Km [3]	Km [4]	Km [5]	Enzyme activity mU/mg (CST-06) [1]	Enzyme activity mU/mg (NST-33) [2]
O=[N+]([O-])c1ccc(O[C@@H]2O[C@H](CO)[C@H](O)[C@H](O)[C@H]2O)cc1 [Gal-β]	1	1.2					
C. jejuni α-2,3-sialyltransferase (CST-06, MBP-fusion protein of the full length sialyltransferase) (Campylobacter jejuni)			0.8 mM ± 0.2 mM	1.3 mM ± 0.12 mM	2.7 mM ± 0.1 mM		
O=[N+]([O-])c1ccc(O[C@@H]2O[C@H](CO)[C@@H](O[C@@H]3O[C@H](CO)[C@H](O)[C@H](O)[C@H]3O)[C@H](O)[C@H]2O)cc1 [Gal-β-1,4-Glc]	4.9	7.8				mU/mg = 420	mU/mg = 30
O=[N+]([O-])c1ccc(OC2OC(CO)C(OC3OC(CO)C(OC4OC(CO)C(O)C(O)C4O)C(O)C3O)C(O)C2O)cc1 (stereo not drawn) [Gal-α-1,4-Gal-β-Glc]	0	5.6					
